From a melting point compilation (Tetko et al.; mined from patent text by program, amines drawn as free bases though some values may be those of a salt)

Row | melting point [°C] | SMILES
1 | 169 | CC(=O)c1ccc(C(=O)NCC(=O)NCC(F)(F)F)c2ccccc12
2 | 118 to 120 | CCCCOC(=O)C(=O)Nc1cc(C#N)cc(NC(=O)C(=O)OCCCC)c1Cl
3 | 138 to 139 | CCOC(=O)c1c(CN(CC)CC)nc2sc3c(c2c1-c1ccc(OC)c(OC)c1)CCCN3C(=O)OCc1ccccc1
4 | 275 to 276 | C=CCNC(=O)C=c1sc2n(c1=O)Cc1ccccc1N=2
5 | 151 to 152 | COC(=O)CCn1c(=O)n(CCN2CCN(c3ccc(OC)cc3)CC2)c(=O)c2cscc21
6 | 114 to 116 | CCOC(=O)Nn1cccc1C(=O)c1ccc(Cl)cc1Cl
7 | 160 | COc1ccc2c(c1)N(C(C)=O)C1=C(S2)C(S(C)(=O)=O)=CCC1=O
8 | 98 to 105 | O=C(O)c1ccccc1Nc1ccc(CCCCc2ccc(Cl)c(Cl)c2)cc1
9 | 42 to 43 | CCCCNc1c(C(=O)OCC)c(C)nc2c1nnn2CC
10 | 223 to 225 | Clc1cc2nc(NC3CC3)[nH]c2cc1Cl
11 | 94 to 95 | O=C(NC1CCN(CCc2ccc(Cl)cc2)C1)C12CC3CC(CC(C3)C1)C2 (centres undefined)
12 | 77.5 to 80 | COc1csc2ccc(C(=O)CC(=O)C3CC3)c(OC)c12
13 | 130 to 141 | CN(C(=O)Nc1ccccc1F)C(Cl)C(Cl)(Cl)Cl (centres undefined)
14 | 85 to 86 | CCCCCCCCCCCC(=O)NCCCCCC(=O)O
15 | 300 | O=C(O)c1cc(C(=O)O)c(C(O)=NCO)cc1C(O)=NCO
16 | 140 to 142 | CO[C@]1(c2csc(Sc3ccc4c(c3)CC/C4=N\O)c2)CCO[C@@H]1C (racemic)
17 | 180 to 186 | O=C(O)CCCC(=O)N1CCC(C2c3ccccc3C=Cc3ccccc32)CC1
18 | 91 to 93 | COCCCNS(=O)(=O)NC(=O)OCc1ccccc1
19 | 160 to 161 | O=C(N[C@H](Cc1cccc(OCC(F)(F)C(F)F)c1)[C@@H](O)c1ccc(F)cc1)c1ccc(F)c2ccccc12 (racemic)
20 | 97 to 99 | CN(Cc1ccccc1)c1nc2c(cc1C#N)C(=O)CC(C)(C)C2
21 | 148 to 154 | CCCN(CCCc1c[nH]c2ccc(Cl)cc12)C1COc2c(F)ccc(C(N)=O)c2C1 (centres undefined)
22 | 198 | CCOc1cc(CCCN2CCc3cc(OC)c(OC)cc3C2)ccc1NC(=O)c1cccc2c(=O)c3cccc(OC)c3[nH]c12
23 | 212 to 214 | COc1ccc(NC(=O)c2csc(Nc3ccc(C)cn3)n2)cc1OC
24 | 138 to 140 | CCCCS(=O)(=O)NC1Cc2ccc(C(=O)CCC(=O)O)cc2C1 (centres undefined)

Row | melting point [°C] | SMILES
25 | 192 to 194 | CCOC(=O)c1cn(CCCl)c2nc(-c3ccncc3)c(F)cc2c1=O
26 | 210 to 211 | COc1ccc2cc(C(=O)O)n(CCNC(C)=O)c2c1
27 | 190 to 193 | CC(C)(C)c1ccc(CC2OCCN(Cc3ccccc3)C2=O)cc1 (centres undefined)
28 | 225 to 227 | COc1cc2c(cc1Br)CC(SC)=NN=C2c1ccc([N+](=O)[O-])cc1
29 | 76 to 78 | O=CCC(F)(F)CN1C(=O)c2ccccc2C1=O
30 | 160 to 168 | COc1nc(C)nc(NC(=O)NS(=O)(=O)c2cccc3c2OC(C)(C)O3)n1
31 | 112 to 113 | COc1cc(CN2CCN(c3cccc(C)c3Cl)CC2)cc(OC)c1OC
32 | 48 to 50 | COC(=O)c1ccc(OC)cc1C(C)=O
33 | 101 to 102 | CCCS(=O)(=O)c1ccc(NS(=O)(=O)c2cccs2)c2[nH]c(C3=NCCS3)cc12
34 | 102 to 104 | Cc1cc(CO)cc(C)c1O
35 | 189 to 191 | COCOc1ccc(-n2c(=O)c3c(CN(C)Cc4ccccc4)c(-c4ccc(NC(=O)NOC)cc4)sc3n(Cc3c(F)cccc3F)c2=O)cc1
36 | 160 to 162 | CC(C)[C@H](NC(=O)OCc1ccccc1)C(=O)N[C@H](C=O)Cc1ccc(OCc2ccccc2)cc1
37 | 73 to 75 | CN(C(N)=O)c1ccccc1S
38 | 240 to 244 | CCCn1c(C(=O)OC)cc(=O)c2oc3ccc(Cl)cc3c(=O)c21
39 | 210 to 214 | C#CCNC(=O)c1cccc(F)c1Nc1nc(Nc2ccc3c(c2)N(C(C)=O)CCCC3)ncc1Cl
40 | 207 to 209 | CN(C)C(=O)c1cc(-c2ccccc2)c(=O)n2c1-c1ccccc1C2
41 | 215 to 216 | CCCS(=O)c1ccc2[nH]c(NC(=O)OC)nc2c1 (centres undefined)
42 | 43 to 44 | CCOC(=O)/C=C/c1cnn(C)c1
43 | 211 to 213 | CCCn1nc2c(N)nc3ccccc3c2c1CCCCS(N)(=O)=O
44 | 223 to 225 | CCc1ccc(-n2c(-c3ccc(SC)cc3)nc(SC)c(C#N)c2=O)cc1
45 | > 210 | CCCC#Cc1ccnc2[nH]cc(-c3ccnc(N)n3)c12
46 | 152 | CC(CO)N1c2ccccc2Sc2ccc(C(N)=S)cc21 (racemic)
47 | 260 to 262 | O=C1NCC(c2cn3c4c(cccc24)CCC3)=C1c1c[nH]c2ccccc12
48 | 281 to 285 | CNC(=O)c1ncc2[nH]c3ccc(N)cc3c2c1C

Row | melting point [°C] | SMILES
49 | 149 | O=C(O)Cc1cc(C(=O)c2cc(Cl)ccc2Cl)ccc1O
50 | 93 to 97 | CCCCOc1cc2cc(CO)c(CO)c(-c3ccnc(NN)c3)c2cc1OC
51 | 85 to 86 | O=C(O)C(CCOc1ccccc1)CCOc1ccccc1
52 | 165 to 166 | CC(=O)NCCO[C@H]1COc2ccc3cnn(C[C@@H](C)O)c3c2C1
53 | 92 to 94 | CC(=O)N1CCC(OC(CO)c2ccccc2)CC1 (centres undefined)
54 | 138 to 143 | CN(C)Nc1cc(Cl)c(Cl)cc1[N+](=O)[O-]
55 | 100 to 101 | CCNc1nc2n(n1)CCc1ccccc1-2
56 | 258 to 260 | Cc1cc(I)ccc1Nc1c(-c2nnc(N)o2)cc2c(ncn2C)c1F
57 | 136 to 149 | COc1ccc(N(CCN2CCC(C(=O)c3ccc(F)cc3)CC2)C(=O)c2ccc(C#N)cc2)cc1
58 | 192 to 193 | COC(=O)C(c1ccc(Cl)cc1)c1c2ccccc2nc2ccccc12 (centres undefined)
59 | 159 to 161 | CC(O)Cn1c(CO)nc(C(C)C)c1Sc1cc(Cl)cc(Cl)c1 (centres undefined)
60 | 84 to 87 | CCOC(=O)C(Oc1cc(N)c(Cl)cc1C(=O)NCCN(CC)CC)c1ccccc1 (centres undefined)
61 | 148 to 149 | Fc1cccc(F)c1C1=NC(c2ccc(-c3ccc(C(F)(F)F)cc3)cc2)CO1 (centres undefined)
62 | 172 to 174 | CC(C)C(C(=O)O)c1ccc(O)cc1 (centres undefined)
63 | 190 | OC[C@@H]1Cc2ccccc2CN1C(=S)Nc1cccc2cnccc12
64 | 170 to 172 | CCC1c2cccn2-c2ccc(Cl)cc2N1S(=O)(=O)c1ccc(O)c(C)c1 (centres undefined)
65 | 111 to 114 | CCON(C(=O)c1cn(C)nc1C(F)F)C(C)Cc1c(Cl)cc(Cl)cc1Cl (centres undefined)
66 | 111 | Cc1c(C)c2c(c(C)c1O)CC[C@@](C)(CCCl)O2
67 | 101 | COc1ccc(S(=O)(=O)C2(C(=O)O)CCN(CCCOc3ccccc3)CC2)cc1
68 | 173 to 176 | CC(C#N)c1ccc2oc(=S)[nH]c2c1 (centres undefined)
69 | 97 to 99 | N#CCN1CCCC(OC(c2ccccc2)c2ccccc2)C1 (centres undefined)
70 | 213 to 215 | CC(=O)c1ccc(NC(=O)C=C(c2ccc(Cl)cc2)c2ccc(Cl)cc2)cc1
71 | 167 to 169 | CC(C)C1=NCCSC1=NO
72 | 170 to 171 | O=C1CC(c2ccccc2Cl)=Nc2c1cccc2C(=O)OCCO

Row | melting point [°C] | SMILES
73 | 144 to 147 | CCOC(=O)Nc1cc(OC(=O)OC)c(Cl)cc1F
74 | 65 to 66 | CC(CSc1cc(C(C)(C)C)c(O)c(C(C)(C)C)c1)N(O)C(N)=O (centres undefined)
75 | 204 to 206 | O=C(O)Cc1ccc(NC(=O)C(Cc2ccccc2)NS(=O)(=O)c2ccc(Cl)cc2)cc1 (racemic)
76 | 94 to 96 | CCCCCCOc1ccc(CCCCCCCCC(=O)NO)cc1
77 | 72 to 82 | CN1CCN(c2ncccc2OC2CCN(c3ccc(Br)cc3)C2=O)CC1 (centres undefined)
78 | 153 to 154 | Cn1c(C(=O)OCc2cc(C(F)(F)F)cc(C(F)(F)F)c2)c(-c2ccccc2)c2ccccc2c1=O
79 | 58 to 60 | CC(=O)N=NCc1ccc(OCCCCCOc2ccc(C(=O)N(c3ccccc3)C(C)C)c(Cl)c2)cc1
80 | 54 to 56 | CCOC(=O)C=C(C)c1ccc(-c2ccc(F)cc2F)cc1
81 | 147 to 155 | Nc1nnc(-c2ccc(C(F)(F)F)cc2)n1-c1cc(Cl)ccc1O
82 | 215 to 216 | CCCOc1ccc2cc(-c3ccc4c(c3)C=C(C(=O)Nc3ccc(CN(C)C5CCOCC5)cc3)CCS4(=O)=O)oc2c1
83 | 146 to 147 | CCCOCCOc1ccc(COc2ccc3c(c2)C=C(C(=O)Nc2ccc(CN(C)C4CCOCC4)cc2)CCS3(=O)=O)cc1OCC
84 | 97 to 99 | CCOC(Cc1ccc(OCCN2CCOc3ccccc32)cc1)C(=O)NC (centres undefined)
85 | 179 to 180 | CC1(C)CCC(Cc2ccc(Cl)cc2)C1(O)Cn1ncnc1S (centres undefined)
86 | 182 | Cc1ccccc1NC(=O)c1c(Cl)cccc1Cl
87 | 142 to 144 | CN(C)c1ccc(NC(=O)N(Cc2ccccc2)C[C@H]2CC[C@H](CN(Cc3ccccc3)C(=O)Nc3ccc(N(C)C)cc3)CC2)cc1
88 | 94 to 95 | CC(C)(C)OC(=O)NCCc1ccc(CC(=O)O)cc1
89 | 180 | COc1ccc(S(=O)(=O)C(Cc2ccccc2)C(=O)NO)cc1 (centres undefined)
90 | 216 to 220 | CSc1ncc2c(Cl)cc(I)n2n1
91 | 164 to 166 | COc1nc(C)nc(NC(=O)NS(=O)(=O)c2sccc2C2OCCO2)n1
92 | 182 to 184 | COc1nc(C)nc(NC(=O)NS(=O)(=O)c2cccs2)n1
93 | 109 to 112 | FC(F)(F)c1cc(Cl)c(-n2cc(I)c(C(F)(F)F)n2)c(Cl)c1
94 | 96 to 98 | COC(=O)CCCOc1cc([N+](=O)[O-])c(COc2ccccc2)cc1OC

Row | SMILES | melting point [°C]
95 | O=C1C2C[C@@H](OCc3ccccc3)CN2C(=O)N1c1ccc([N+](=O)[O-])c2ccccc12 (some centres undefined) | 120 to 122
96 | COCC(=O)NCC(=O)N1CC1C#N (centres undefined) | 70 to 72
97 | O=C(Nc1nccs1)c1cn(CC2CCCC2)c2cc(Cl)ccc12 | 117 to 119
98 | CC(=O)Nc1cccc(-c2ccnc3c(C(=O)c4ccco4)cnn23)c1 | 195 to 196
99 | COCCn1c(C)c(C(=O)c2c(Cl)c(Cl)c(Cl)c(Cl)c2C(=O)O)c2ccccc21 | 182 to 184
